Measurements published in ChEMBL document CHEMBL1121941, “Two clonidine-like compounds with substituents at the 2-, 3-, and 6-position of the phenyl ring possessing pronounced hypotensive potencies” (J Med Chem, 1982).

Legend:
Rattus norvegicus = assay: Hypotensive activity measured as the 20% decrease in mean arterial blood pressure in anesthetized normotensive rat; format: functional
Felis catus = assay: Hypotensive activity measured as the 20% decrease in mean arterial blood pressure in anesthetized cat; format: functional
[1] = Partition coefficient (logP); format: physicochemical; details: octanol/water

SMILES	pC20 (Rattus norvegicus)	pC20 (Felis catus)	logP [1]
Clc1ccc(Cl)c(NC2=NCCN2)c1Cl	8.39	9.17	1.71
Clc1cccc(Cl)c1NC1=NCCN1 [CLONIDINE]	7.96	8.72	0.91
Cc1ccc(Cl)c(Cl)c1NC1=NCCN1	7.79	7.92	1.06
